Data on 25 compounds can be found in PubChem BioAssay AID192 (DTP/NCI, 2004).

Structures are written as SMILES. Values joined by “and” are separate entries in the source; they are usually repeats but may differ in a detail not shown here. Equal entries are not always repeated. Inconclusive results and toxic doses are left out. Square brackets hold non-standard residues; d marks the D form. Peptide text beside a SMILES is read from it. ξ: configuration not given here. ξV = CC(C)C(N)C(=O)O

This test has as its system BDF1 mice, B16 melanoma ip, median survival T/C. Briefly: NCI In Vivo Anticancer Drug Screen. Data for tumor model B16 Melanoma (intraperitoneal) in B6D2F1 (BDF1) mice. The note with it: endpoint: median survival time, higher = longer survival. A digest of the protocol:
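Read-out: survival or tumor size, given as treated/control ratio. Controls received vehicle only; animals bore transplantable tumors.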

Where [1] appears, read: dose: 3.12 mg/kg/injection, schedule: Q01DX009 (ip), vehicle: Klucel (hydroxypropylcellulose) (HPC).
Where [2] appears, read: dose: 6.25 mg/kg/injection, schedule: Q01DX009 (ip), vehicle: Klucel (hydroxypropylcellulose) (HPC).
The mark [3] stands for this setting: dose: 12.5 mg/kg/injection, schedule: Q01DX009 (ip), vehicle: Klucel (hydroxypropylcellulose) (HPC).
[4] abbreviates: dose: 25.0 mg/kg/injection, schedule: Q01DX009 (ip), vehicle: Klucel (hydroxypropylcellulose) (HPC).
The mark [5] stands for this setting: dose: 12.5 mg/kg/injection, schedule: Q01DX009 (ip), vehicle: saline with Tween-80.
Setting [6] is: dose: 25.0 mg/kg/injection, schedule: Q01DX009 (ip), vehicle: saline with Tween-80.
Setting [7] is: dose: 12.5 mg/kg/injection, schedule: Q01DX009 (ip), vehicle: saline.
Where [8] appears, read: dose: 25.0 mg/kg/injection, schedule: Q01DX009 (ip), vehicle: saline.
Where [9] appears, read: dose: 50.0 mg/kg/injection, schedule: Q01DX009 (ip), vehicle: saline.
The mark [10] stands for this setting: dose: 100.0 mg/kg/injection, schedule: Q01DX009 (ip), vehicle: saline.
Setting [11] is: dose: 200.0 mg/kg/injection, schedule: Q01DX009 (ip), vehicle: saline.
The mark [12] stands for this setting: dose: 100.0 mg/kg/injection, schedule: Q01DX009 (ip), vehicle: Klucel (hydroxypropylcellulose) (HPC).
Setting [13] is: dose: 200.0 mg/kg/injection, schedule: Q01DX009 (ip), vehicle: Klucel (hydroxypropylcellulose) (HPC).
[14] abbreviates: dose: 400.0 mg/kg/injection, schedule: Q01DX009 (ip), vehicle: Klucel (hydroxypropylcellulose) (HPC).
The mark [15] stands for this setting: dose: 50.0 mg/kg/injection, schedule: Q01DX009 (ip), vehicle: saline with Tween-80.
[16] abbreviates: dose: 100.0 mg/kg/injection, schedule: Q01DX009 (ip), vehicle: saline with Tween-80.
The mark [17] stands for this setting: dose: 50.0 mg/kg/injection, schedule: Q01DX009 (ip), vehicle: Klucel (hydroxypropylcellulose) (HPC).

As to `NC(=O)N1CCN(CCCN2c3ccccc3Sc3cc(Cl)ccc32)CC1`, the T/C is 92 % of control under setting [1], 98 % of control under setting [2], 101 % of control under setting [3] and 106 % of control under setting [4].

`CCOC(Cl)CCl` (stereo not drawn): the T/C is 97 % of control under setting [5] and 102 % of control under setting [6].

With `O=C1c2ccccc2C(=O)N1CCC[P+](c1ccccc1)(c1ccccc1)c1ccccc1`, the T/C by setting is: (dose: 1.56 mg/kg/injection, schedule: Q01DX009 (ip), vehicle: Klucel (hydroxypropylcellulose) (HPC)) 100 % of control; under setting [1], 102 % of control; under setting [2], 96 % of control; under setting [3], 100 % of control.

With `COC(=O)C1CCC[N+](C)(C)C1` (stereo not drawn), the T/C is 100 % of control under setting [7], 100 % of control under setting [8] and 91 % of control under setting [9].

For `CC(C)C(NC(=O)CN)C(=O)O` (stereo not drawn) (H-Gly-[ξV]-OH), the T/C was 102 % of control under setting [10]; 102 % of control (dose: 100.0 mg/kg/injection, schedule: Q04DX003 (ip), vehicle: saline); 100 % of control under setting [11]; 97 % of control (dose: 200.0 mg/kg/injection, schedule: Q04DX003 (ip), vehicle: saline); 90 % of control (dose: 400.0 mg/kg/injection, schedule: Q01DX009 (ip), vehicle: saline); 95 % of control (dose: 400.0 mg/kg/injection, schedule: Q04DX003 (ip), vehicle: saline).

Turning to `O=[N+]([O-])c1ccc2c(c1)Cc1cc(Br)ccc1-2`, the T/C is, setting by setting: (dose: 100.0 mg/kg/injection, schedule: Q04DX003 (ip), vehicle: Klucel (hydroxypropylcellulose) (HPC)) 97 % of control; (dose: 200.0 mg/kg/injection, schedule: Q04DX003 (ip), vehicle: Klucel (hydroxypropylcellulose) (HPC)) 100 % of control; (dose: 400.0 mg/kg/injection, schedule: Q04DX003 (ip), vehicle: Klucel (hydroxypropylcellulose) (HPC)) 100 % of control.

In the case of `NC(=O)c1ccccc1C(N)=O`, the T/C is, setting by setting: under setting [12], 100 % of control; under setting [13], 106 % of control; under setting [14], 93 % of control.

Turning to `c1ccc2c(NCCCCCCNc3c4ccccc4nc4ccccc34)c3ccccc3nc2c1`, the T/C reads like this: (dose: 1.25 mg/kg/injection, schedule: Q01DX009 (ip), vehicle: Klucel (hydroxypropylcellulose) (HPC)) 124 % of control; (dose: 10.0 mg/kg/injection, schedule: Q01DX009 (ip), vehicle: Klucel (hydroxypropylcellulose) (HPC)) 174 % of control; (dose: 20.0 mg/kg/injection, schedule: Q01DX009 (ip), vehicle: Klucel (hydroxypropylcellulose) (HPC)) 179 % of control.

Turning to `CC(NC(=O)OC(C)(C)C)C(=O)ON1C(=O)CCC1=O` (stereo not drawn), the T/C runs as follows: under setting [15], 102 % of control; under setting [16], 92 % of control.

On to `CCCCCCCCCCCCCCCCCC(=O)NCNC(=O)CCCCCCCCCCCCCCCCC`, for which the T/C is, setting by setting: (dose: 2.5 mg/kg/injection, schedule: Q01DX009 (ip), vehicle: saline with Tween-80) 102 % of control; (dose: 4.68 mg/kg/injection, schedule: Q04DX003 (ip), vehicle: saline with Tween-80) 86 % of control; (dose: 5.0 mg/kg/injection, schedule: Q01DX009 (ip), vehicle: saline with Tween-80) 100 % of control; (dose: 9.37 mg/kg/injection, schedule: Q04DX003 (ip), vehicle: saline with Tween-80) 97 % of control; (dose: 10.0 mg/kg/injection, schedule: Q01DX009 (ip), vehicle: saline with Tween-80) 87 % of control.

Regarding `O=C(Nc1ccc(F)cc1)Nc1nccs1`, the T/C reads like this: under setting [4], 99 % of control; under setting [17], 104 % of control; under setting [12], 101 % of control; under setting [13], 104 % of control.

With `OCC1OC(OC2(CO)OC(CO)C(O)C2O)C(O)C(O)C1O` (stereo not drawn), the T/C was 104 % of control (dose: 3.9 mg/kg/injection, schedule: Q01DX005 (ip), vehicle: saline); 87 % of control (dose: 7.81 mg/kg/injection, schedule: Q01DX005 (ip), vehicle: saline); 105 % of control (dose: 15.63 mg/kg/injection, schedule: Q01DX005 (ip), vehicle: saline); 104 % of control (dose: 31.25 mg/kg/injection, schedule: Q01DX005 (ip), vehicle: saline); 105 % of control (dose: 62.5 mg/kg/injection, schedule: Q01DX005 (ip), vehicle: saline); 105 % of control (dose: 125.0 mg/kg/injection, schedule: Q01DX005 (ip), vehicle: saline). Besides, the T/C is 109 % of control (dose: 250.0 mg/kg/injection, schedule: Q01DX005 (ip), vehicle: saline); 105 % of control (dose: 500.0 mg/kg/injection, schedule: Q01DX005 (ip), vehicle: saline); 104 % of control (dose: 1000.0 mg/kg/injection, schedule: Q01DX005 (ip), vehicle: saline); 102 % of control (dose: 2000.0 mg/kg/injection, schedule: Q01DX005 (ip), vehicle: saline).

Consider `CCCCCCCCCCCCCC(=O)CCC`, for which the T/C runs as follows: under setting [4], 105 % of control; under setting [17], 101 % of control; (dose: 100.0 mg/kg/injection, schedule: Q01DX009 (ip), vehicle: other) 88 % of control.

Turning to `CCOc1ccc(N2C(=O)CSC2=S)cc1`, the T/C reads like this: under setting [3], 103 % of control; under setting [4], 91 % of control; under setting [17], 95 % of control.

Consider `ClC(Cl)(Cl)C(Nc1ccccc1)Nc1ccccc1`, for which the T/C under setting [2] is 89 % of control and the T/C under setting [4] was 86 % of control.

For `O=C(O)CCNCc1ccccc1`, the T/C by setting is: under setting [7], 111 % of control; under setting [9], 102 % of control; under setting [10], 106 % of control; under setting [11], 111 % of control.

On to `CCCCCCCC(O)CCC` (stereo not drawn), for which the T/C is 105 % of control under setting [12], 97 % of control under setting [13] and 93 % of control under setting [14].

Consider `Cc1[nH]c(N)nc(=S)c1CCC(=O)Nc1ccc(C(=O)NC(CCC(=O)O)C(=O)O)cc1` (stereo not drawn), for which the T/C is, setting by setting: under setting [15], 101 % of control; under setting [16], 101 % of control; (dose: 200.0 mg/kg/injection, schedule: Q01DX009 (ip), vehicle: saline with Tween-80) 100 % of control; (dose: 400.0 mg/kg/injection, schedule: Q01DX009 (ip), vehicle: saline with Tween-80) 110 % of control.

`CCOC(=O)C1C2OC(=O)C(C(=O)C2CN(CCCl)CCCl)C1C1CC=C(CC2=CCC(C3C4C(=O)OC(C(CN(CCCl)CCCl)C4=O)C3C(=O)OCC)CC2)CC1` (stereo not drawn): the T/C reads like this: under setting [3], 107 % of control; under setting [5], 113 % of control; under setting [4], 118 % of control; under setting [6], 119 % of control; under setting [15], 150 % of control; under setting [12], 153 % of control. Besides, the T/C under setting [16] was 174 % of control.

Regarding `CCC[CH2][Ge]([Cl])([Cl])[CH2]CCC`, the T/C is 100 % of control under setting [3] and 90 % of control under setting [4].

`CCC(=S)Nc1ccc(Cl)cc1`: the T/C is 100 % of control (dose: 25.0 mg/kg/injection, schedule: Q01DX009 (ip), vehicle: carboxymethylcellulose (CMC)); 107 % of control (dose: 50.0 mg/kg/injection, schedule: Q01DX009 (ip), vehicle: carboxymethylcellulose (CMC)); 103 % of control (dose: 100.0 mg/kg/injection, schedule: Q01DX009 (ip), vehicle: carboxymethylcellulose (CMC)).

Consider `Cc1cc(N(CCOS(C)(=O)=O)CCOS(C)(=O)=O)ccc1C=Nc1ccc(-c2nc(Cc3ccccc3)sc2C)cc1`, for which the T/C under setting [4] was 165 % of control, the T/C under setting [17] is 174 % of control and the T/C under setting [12] was 107 % of control.

For `CC12C=CC3(CCC4C(C)(C)C(O)C(=O)CC4(C)C3CC1=O)C2` (stereo not drawn), the T/C runs as follows: under setting [12], 97 % of control; under setting [13], 89 % of control; under setting [14], 94 % of control.

Consider `CCCCCCCCCC(O)CCCC` (stereo not drawn), for which the T/C runs as follows: under setting [4], 108 % of control; under setting [17], 105 % of control; under setting [12], 86 % of control.

Regarding `O=C(O)C(=O)O`, the T/C by setting is: (dose: 6.25 mg/kg/injection, schedule: Q01DX009 (ip), vehicle: saline) 101 % of control; under setting [7], 105 % of control; under setting [8], 96 % of control and 108 % of control; under setting [9], 95 % of control.
